Source: ChEMBL document CHEMBL1139752, “New rifabutin analogs: synthesis and biological activity against Mycobacterium tuberculosis” (2006)
≈ marks a conversion by molar mass, not a printed value.

Columns and labels:
Format in all cases: functional
[1] = tested on: Mycobacterium tuberculosis; test: Antimycobacterial activity against rifampicin and rifabutin resistant Mycobacterium tuberculosis ATCC 35838
[2] = tested on: Mycobacterium tuberculosis; test: Antimycobacterial activity against rifampicin and rifabutin resistant Mycobacterium tuberculosis
[3] = tested on: Mycobacterium tuberculosis; test: Antimycobacterial activity against ethambutol resistant Mycobacterium tuberculosis ATCC 35837
[4] = tested on: Mycobacterium tuberculosis; test: Antimycobacterial activity against streptomycin resistant Mycobacterium tuberculosis ATCC 35820
[5] = tested on: Mycobacterium tuberculosis; test: Antimycobacterial activity against isoniazid resistant Mycobacterium tuberculosis ATCC 35822

CO[C@H]1/C=C/O[C@@]2(C)Oc3c(C)c(O)c4c(O)c(c(/C=N/N5CCN(C)CC5)c(O)c4c3C2=O)NC(=O)/C(C)=C\C=C\[C@H](C)[C@H](O)[C@@H](C)[C@@H](O)[C@@H](C)[C@H](OC(C)=O)[C@@H]1C [RIFAMPIN]
MIC [1]: > 5 µg/mL | MIC [2]: > 5 µg/mL | MIC [3]: 0.02 µg/mL (≈ 0.0243 µM) | MIC [4]: 0.02 µg/mL (≈ 0.0243 µM) | MIC [5]: 0.02 µg/mL (≈ 0.0243 µM)

CO[C@H]1/C=C/O[C@@]2(C)Oc3c(C)c(O)c4c(c3C2=O)C2=N[C@@]3(C[C@@H](c5ccc(F)cc5)N[C@@H](c5ccc(F)cc5)C3)NC2=C(NC(=O)/C(C)=C\C=C\[C@H](C)[C@H](O)[C@@H](C)[C@H](O)[C@H](C)[C@H](OC(C)=O)[C@@H]1C)C4=O
MIC [1]: 0.5 µg/mL (≈ 0.511 µM) | MIC [2]: 0.3 µg/mL (≈ 0.306 µM) | MIC [3]: 0.02 µg/mL (≈ 0.0204 µM) | MIC [4]: 0.02 µg/mL (≈ 0.0204 µM) | MIC [5]: 0.02 µg/mL (≈ 0.0204 µM)

C=CCN1[C@@H](c2ccccc2)C[C@@]2(C[C@H]1c1ccccc1)N=C1C(=C3NC(=O)/C(C)=C\C=C\[C@H](C)[C@H](O)[C@@H](C)[C@H](O)[C@H](C)[C@H](OC(C)=O)[C@H](C)[C@@H](OC)/C=C/O[C@@]4(C)Oc5c(C)c(O)c(c1c5C4=O)C3=O)N2
MIC [1]: > 1 µg/mL | MIC [2]: > 1 µg/mL | MIC [3]: 0.02 µg/mL (≈ 0.0203 µM) | MIC [4]: 0.02 µg/mL (≈ 0.0203 µM) | MIC [5]: 0.02 µg/mL (≈ 0.0203 µM)

CO[C@H]1/C=C/O[C@@]2(C)Oc3c(C)c(O)c4c(c3C2=O)C2=N[C@]3(C[C@@H](c5ccccc5)N[C@@H](c5ccccc5)C3)NC2=C(NC(=O)/C(C)=C\C=C\[C@H](C)[C@H](O)[C@@H](C)[C@H](O)[C@H](C)[C@H](OC(C)=O)[C@@H]1C)C4=O
MIC [1]: 1 µg/mL (≈ 1.06 µM) | MIC [2]: > 1 µg/mL | MIC [3]: 0.02 µg/mL (≈ 0.0212 µM) | MIC [4]: 0.02 µg/mL (≈ 0.0212 µM) | MIC [5]: 0.02 µg/mL (≈ 0.0212 µM)

COc1ccc([C@@H]2C[C@]3(C[C@H](c4ccc(OC)cc4)N2)N=C2C(=C4NC(=O)/C(C)=C\C=C\[C@H](C)[C@H](O)[C@@H](C)[C@H](O)[C@H](C)[C@H](OC(C)=O)[C@H](C)[C@@H](OC)/C=C/O[C@@]5(C)Oc6c(C)c(O)c(c2c6C5=O)C4=O)N3)cc1
MIC [1]: 1 µg/mL (≈ 0.997 µM) | MIC [2]: > 1 µg/mL | MIC [3]: 0.02 µg/mL (≈ 0.0199 µM) | MIC [4]: 0.02 µg/mL (≈ 0.0199 µM) | MIC [5]: 0.02 µg/mL (≈ 0.0199 µM)

CO[C@H]1/C=C/O[C@@]2(C)Oc3c(C)c(O)c4c(c3C2=O)C2=NC3(CCN(CC(C)C)CC3)NC2=C(NC(=O)/C(C)=C\C=C\[C@H](C)[C@H](O)[C@@H](C)[C@@H](O)[C@@H](C)[C@H](OC(C)=O)[C@@H]1C)C4=O [RIFABUTIN]
MIC [1]: > 5 µg/mL | MIC [2]: > 5 µg/mL | MIC [3]: 0.02 µg/mL (≈ 0.0236 µM) | MIC [4]: 0.02 µg/mL (≈ 0.0236 µM) | MIC [5]: 0.02 µg/mL (≈ 0.0236 µM)

CCCCN1[C@@H](c2ccccc2)C[C@@]2(C[C@H]1c1ccccc1)N=C1C(=C3NC(=O)/C(C)=C\C=C\[C@H](C)[C@H](O)[C@@H](C)[C@H](O)[C@H](C)[C@H](OC(C)=O)[C@H](C)[C@@H](OC)/C=C/O[C@@]4(C)Oc5c(C)c(O)c(c1c5C4=O)C3=O)N2
MIC [1]: 1 µg/mL (≈ 1 µM) | MIC [2]: > 1 µg/mL | MIC [3]: 0.02 µg/mL (≈ 0.02 µM) | MIC [4]: 0.02 µg/mL (≈ 0.02 µM) | MIC [5]: 0.02 µg/mL (≈ 0.02 µM)

C=CCCN1[C@@H](c2ccccc2)C[C@@]2(C[C@H]1c1ccccc1)N=C1C(=C3NC(=O)/C(C)=C\C=C\[C@H](C)[C@H](O)[C@@H](C)[C@H](O)[C@H](C)[C@H](OC(C)=O)[C@H](C)[C@@H](OC)/C=C/O[C@@]4(C)Oc5c(C)c(O)c(c1c5C4=O)C3=O)N2
MIC [1]: > 1 µg/mL | MIC [2]: > 1 µg/mL | MIC [3]: 0.02 µg/mL (≈ 0.0201 µM) | MIC [4]: 0.02 µg/mL (≈ 0.0201 µM) | MIC [5]: 0.02 µg/mL (≈ 0.0201 µM)

CO[C@H]1/C=C/O[C@@]2(C)Oc3c(C)c(O)c4c(c3C2=O)C2=N[C@@]3(C[C@@H](c5ccccc5)N[C@@H](c5ccccc5)C3)NC2=C(NC(=O)/C(C)=C\C=C\[C@H](C)[C@H](O)[C@@H](C)[C@H](O)[C@H](C)[C@H](OC(C)=O)[C@@H]1C)C4=O
MIC [1]: 0.5 µg/mL (≈ 0.53 µM) | MIC [2]: 0.3 µg/mL (≈ 0.318 µM) | MIC [3]: 0.02 µg/mL (≈ 0.0212 µM) | MIC [4]: 0.02 µg/mL (≈ 0.0212 µM) | MIC [5]: 0.02 µg/mL (≈ 0.0212 µM)
